{"source": "PubChem BioAssay (NCI)", "assay_in_all_cases": "growth of human tumour cells (NCI), 48 h", "key": {"[1]": {"system": "786-0 renal"}, "[2]": {"system": "A498 renal"}, "[3]": {"system": "A549 NSCLC"}, "[4]": {"system": "ACHN renal"}, "[5]": {"system": "BT-549 breast"}, "[6]": {"system": "COLO 205 colon"}, "[7]": {"system": "DU-145 prostate"}, "[8]": {"system": "EKVX NSCLC"}, "[9]": {"system": "HCC-2998 colon"}, "[10]": {"system": "HCT-15 colon"}, "[11]": {"system": "HL-60(TB) leukemia"}, "[12]": {"system": "HOP-62 NSCLC"}, "[13]": {"system": "HS 578T breast"}, "[14]": {"system": "IGROV1 ovarian"}, "[15]": {"system": "M14 melanoma"}, "[16]": {"system": "MALME-3M melanoma"}, "[17]": {"system": "MCF7 breast"}, "[18]": {"system": "MDA-MB-231 breast"}, "[19]": {"system": "MDA-MB-435"}, "[20]": {"system": "NCI-H226 lung"}, "[21]": {"system": "NCI-H23 lung"}, "[22]": {"system": "NCI-H460 lung"}, "[23]": {"system": "NCI-H522 lung"}, "[24]": {"system": "NCI/ADR-RES ovarian"}, "[25]": {"system": "OVCAR-3 ovarian"}, "[26]": {"system": "OVCAR-4 ovarian"}, "[27]": {"system": "OVCAR-5 ovarian"}, "[28]": {"system": "OVCAR-8 ovarian"}, "[29]": {"system": "PC-3 prostate"}, "[30]": {"system": "RXF 393 renal"}, "[31]": {"system": "SF-268 CNS"}, "[32]": {"system": "SF-295 CNS"}, "[33]": {"system": "SF-539 CNS"}, "[34]": {"system": "SK-MEL-2 melanoma"}, "[35]": {"system": "SK-MEL-28 melanoma"}, "[36]": {"system": "SK-MEL-5 melanoma"}, "[37]": {"system": "SK-OV-3 ovarian"}, "[38]": {"system": "SN12C renal"}, "[39]": {"system": "SNB-19 CNS"}, "[40]": {"system": "SNB-75 CNS"}, "[41]": {"system": "T-47D breast"}, "[42]": {"system": "TK-10 renal"}, "[43]": {"system": "U251 CNS"}, "[44]": {"system": "UACC-257 melanoma"}, "[45]": {"system": "UO-31 renal"}}, "note": "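How tested: cells in 96-well plates exposed to compound for 48 hours at five concentrations. Here, GI50 denotes the concentration required for 50% inhibition of growth. TGI is the concentration that stops growth completely.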"}
{"molecule": "CN1c2ccccc2C(C)(C)C12CC(c1ccc(Cl)c(S(=O)(=O)N3CCCC3)c1)=NO2", "note": "(stereo not given)", "values": [{"measurement": "GI50", "setting": "[1]", "value": "> 100", "unit": "µM"}, {"measurement": "TGI", "setting": "[1]", "value": "> 100", "unit": "µM"}, {"measurement": "GI50", "setting": "[2]", "value": "> 100", "unit": "µM"}, {"measurement": "TGI", "setting": "[2]", "value": "> 100", "unit": "µM"}, {"measurement": "GI50", "setting": "[3]", "value": "> 100", "unit": "µM"}, {"measurement": "TGI", "setting": "[3]", "value": "> 100", "unit": "µM"}, {"measurement": "GI50", "setting": "[4]", "value": "> 100", "unit": "µM"}, {"measurement": "TGI", "setting": "[4]", "value": "> 100", "unit": "µM"}, {"measurement": "GI50", "setting": "[5]", "value": "> 100", "unit": "µM"}, {"measurement": "TGI", "setting": "[5]", "value": "> 100", "unit": "µM"}, {"measurement": "GI50", "setting": "[6]", "value": "> 100", "unit": "µM"}, {"measurement": "TGI", "setting": "[6]", "value": "> 100", "unit": "µM"}, {"measurement": "GI50", "setting": "[7]", "value": "> 100", "unit": "µM"}, {"measurement": "TGI", "setting": "[7]", "value": "> 100", "unit": "µM"}, {"measurement": "GI50", "setting": "[8]", "value": "> 100", "unit": "µM"}, {"measurement": "TGI", "setting": "[8]", "value": "> 100", "unit": "µM"}, {"measurement": "GI50", "setting": "[9]", "value": "> 100", "unit": "µM"}, {"measurement": "TGI", "setting": "[9]", "value": "> 100", "unit": "µM"}, {"measurement": "GI50", "setting": "[10]", "value": 0.118, "unit": "µM"}, {"measurement": "TGI", "setting": "[10]", "value": "> 100", "unit": "µM"}, {"measurement": "GI50", "setting": "[11]", "value": "> 100", "unit": "µM"}, {"measurement": "TGI", "setting": "[11]", "value": "> 100", "unit": "µM"}, {"measurement": "GI50", "setting": "[12]", "value": 83.7, "unit": "µM"}, {"measurement": "TGI", "setting": "[12]", "value": "> 100", "unit": "µM"}, {"measurement": "GI50", "setting": "[13]", "value": "> 100", "unit": "µM"}, {"measurement": "TGI", "setting": "[13]", "value": "> 100", "unit": "µM"}, {"measurement": "GI50", "setting": "[14]", "value": "> 100", "unit": "µM"}, {"measurement": "TGI", "setting": "[14]", "value": "> 100", "unit": "µM"}, {"measurement": "GI50", "setting": "[15]", "value": "> 100", "unit": "µM"}, {"measurement": "TGI", "setting": "[15]", "value": "> 100", "unit": "µM"}, {"measurement": "GI50", "setting": "[16]", "value": "> 100", "unit": "µM"}, {"measurement": "TGI", "setting": "[16]", "value": "> 100", "unit": "µM"}, {"measurement": "GI50", "setting": "[17]", "value": "> 100", "unit": "µM"}, {"measurement": "TGI", "setting": "[17]", "value": "> 100", "unit": "µM"}, {"measurement": "GI50", "setting": "[18]", "value": "> 100", "unit": "µM"}, {"measurement": "TGI", "setting": "[18]", "value": "> 100", "unit": "µM"}, {"measurement": "GI50", "setting": "[19]", "value": "> 100", "unit": "µM"}, {"measurement": "TGI", "setting": "[19]", "value": "> 100", "unit": "µM"}, {"measurement": "GI50", "setting": "[20]", "value": "> 100", "unit": "µM"}, {"measurement": "TGI", "setting": "[20]", "value": "> 100", "unit": "µM"}, {"measurement": "GI50", "setting": "[21]", "value": "> 100", "unit": "µM"}, {"measurement": "TGI", "setting": "[21]", "value": "> 100", "unit": "µM"}, {"measurement": "GI50", "setting": "[22]", "value": 0.375, "unit": "µM"}, {"measurement": "TGI", "setting": "[22]", "value": "> 100", "unit": "µM"}, {"measurement": "GI50", "setting": "[23]", "value": "> 100", "unit": "µM"}, {"measurement": "TGI", "setting": "[23]", "value": "> 100", "unit": "µM"}, {"measurement": "GI50", "setting": "[24]", "value": "> 100", "unit": "µM"}, {"measurement": "TGI", "setting": "[24]", "value": "> 100", "unit": "µM"}, {"measurement": "GI50", "setting": "[25]", "value": "> 100", "unit": "µM"}, {"measurement": "TGI", "setting": "[25]", "value": "> 100", "unit": "µM"}, {"measurement": "GI50", "setting": "[26]", "value": "> 100", "unit": "µM"}, {"measurement": "TGI", "setting": "[26]", "value": "> 100", "unit": "µM"}, {"measurement": "GI50", "setting": "[27]", "value": "> 100", "unit": "µM"}, {"measurement": "TGI", "setting": "[27]", "value": "> 100", "unit": "µM"}, {"measurement": "GI50", "setting": "[28]", "value": "> 100", "unit": "µM"}, {"measurement": "TGI", "setting": "[28]", "value": "> 100", "unit": "µM"}, {"measurement": "GI50", "setting": "[29]", "value": 59, "unit": "µM"}, {"measurement": "TGI", "setting": "[29]", "value": "> 100", "unit": "µM"}, {"measurement": "GI50", "setting": "[30]", "value": "> 100", "unit": "µM"}, {"measurement": "TGI", "setting": "[30]", "value": "> 100", "unit": "µM"}, {"measurement": "GI50", "setting": "[31]", "value": "> 100", "unit": "µM"}, {"measurement": "TGI", "setting": "[31]", "value": "> 100", "unit": "µM"}, {"measurement": "GI50", "setting": "[32]", "value": "> 100", "unit": "µM"}, {"measurement": "TGI", "setting": "[32]", "value": "> 100", "unit": "µM"}, {"measurement": "GI50", "setting": "[33]", "value": "> 100", "unit": "µM"}, {"measurement": "TGI", "setting": "[33]", "value": "> 100", "unit": "µM"}, {"measurement": "GI50", "setting": "[34]", "value": "> 100", "unit": "µM"}, {"measurement": "TGI", "setting": "[34]", "value": "> 100", "unit": "µM"}, {"measurement": "GI50", "setting": "[35]", "value": "> 100", "unit": "µM"}, {"measurement": "TGI", "setting": "[35]", "value": "> 100", "unit": "µM"}, {"measurement": "GI50", "setting": "[36]", "value": 0.456, "unit": "µM"}, {"measurement": "TGI", "setting": "[36]", "value": "> 100", "unit": "µM"}, {"measurement": "GI50", "setting": "[37]", "value": "> 100", "unit": "µM"}, {"measurement": "TGI", "setting": "[37]", "value": "> 100", "unit": "µM"}, {"measurement": "GI50", "setting": "[38]", "value": "> 100", "unit": "µM"}, {"measurement": "TGI", "setting": "[38]", "value": "> 100", "unit": "µM"}, {"measurement": "GI50", "setting": "[39]", "value": "> 100", "unit": "µM"}, {"measurement": "TGI", "setting": "[39]", "value": "> 100", "unit": "µM"}, {"measurement": "GI50", "setting": "[40]", "value": "> 100", "unit": "µM"}, {"measurement": "TGI", "setting": "[40]", "value": "> 100", "unit": "µM"}, {"measurement": "GI50", "setting": "[41]", "value": "> 100", "unit": "µM"}, {"measurement": "TGI", "setting": "[41]", "value": "> 100", "unit": "µM"}, {"measurement": "GI50", "setting": "[42]", "value": "> 100", "unit": "µM"}, {"measurement": "TGI", "setting": "[42]", "value": "> 100", "unit": "µM"}, {"measurement": "GI50", "setting": "[43]", "value": 0.531, "unit": "µM"}, {"measurement": "TGI", "setting": "[43]", "value": "> 100", "unit": "µM"}, {"measurement": "GI50", "setting": "[44]", "value": "> 100", "unit": "µM"}, {"measurement": "TGI", "setting": "[44]", "value": "> 100", "unit": "µM"}, {"measurement": "GI50", "setting": "[45]", "value": "> 100", "unit": "µM"}, {"measurement": "TGI", "setting": "[45]", "value": "> 100", "unit": "µM"}]}
